Results: ChEMBL document CHEMBL1201862, “PubChem BioAssay data set” (2004)
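Step 1: Grow cells in 96-well plates. Step 2: Expose to compound for 48 hours at 5 concentrations. Step 3: Interpolate endpoints linearly; if unreached, use highest concentration. At the GI50, growth is halved.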 Activity calls are given as the source filed them. Rule as the data show it: active = GI50 up to about 1.1 µM and inactive = higher.

What was measured:
Test in all cases: DTP human tumour cell line panel, 48 h
[1] = test system: IGROV-1
[2] = test system: K562
[3] = test system: TK-10
[4] = test system: NCI-H460
[5] = test system: MDA-MB-435
[6] = test system: SF-539
[7] = test system: MCF7
[8] = test system: SNB-19
[9] = test system: SK-MEL-28
[10] = test system: Malme-3M
[11] = test system: UACC-62
[12] = test system: UACC-257
[13] = test system: NCI-H226
[14] = test system: NCI/ADR-RES
[15] = test system: SW-620
[16] = test system: M14
[17] = test system: 786-0
[18] = test system: MDA-MB-231
[19] = test system: LOX IMVI
[20] = test system: SK-MEL-5
[21] = test system: SK-OV-3
[22] = test system: MOLT-4
[23] = test system: SF-295
[24] = test system: HOP-62
[25] = test system: HCT-15
[26] = test system: SN12C
[27] = test system: KM12
[28] = test system: HL-60
[29] = test system: SNB-75
[30] = test system: BT-549
[31] = test system: HOP-92
[32] = test system: OVCAR-4
[33] = test system: T47D
[34] = test system: A549
[35] = test system: OVCAR-8
[36] = test system: OVCAR-3
[37] = test system: EKVX
[38] = test system: NCI-H23
[39] = test system: DU-145
[40] = test system: UO-31
[41] = test system: NCI-H522
[42] = test system: HT-29
[43] = test system: CAKI-1
[44] = test system: SF-268
[45] = test system: HCT-116
[46] = test system: RPMI-8226
[47] = test system: U-251
[48] = test system: COLO 205
[49] = test system: PC-3
[50] = test system: OVCAR-5
[51] = test system: Hs-578T
[52] = test system: SR
[53] = test system: CCRF-CEM
[54] = test system: SK-MEL-2
[55] = test system: HCC 2998
[56] = test system: ACHN
[57] = test system: RXF 393
[58] = test system: MDA-N
[59] = test system: A498

Cc1c(CNc2ccc(C(=O)NC(CCCNC(=O)c3ccccc3C(=O)O)C(=O)O)cc2)cnc2nc(N)nc(N)c12 (centres undefined)
GI50 [1]: 0.000518 µM (active)
GI50 [2]: < 0.0001 µM (active)
GI50 [3]: 1.79 µM (inactive)
GI50 [4]: 0.000381 µM (active)
GI50 [5]: 0.000596 µM (active)
GI50 [6]: 0.000461 µM (active)
GI50 [7]: 0.0007 µM (active)
GI50 [8]: 0.01 µM (active)
GI50 [9]: 0.192 µM (active)
GI50 [10]: 0.468 µM (active)
GI50 [11]: 0.000396 µM (active)
GI50 [12]: 0.785 µM (active)
GI50 [13]: 0.000617 µM (active)
GI50 [14]: 0.000298 µM (active)
GI50 [15]: < 0.0001 µM (active)
GI50 [16]: 0.000656 µM (active)
GI50 [17]: < 0.0001 µM (active)
GI50 [18]: 3.23 µM (inactive)
GI50 [19]: < 0.0001 µM (active)
GI50 [20]: 0.000644 µM (active)
GI50 [21]: 0.00644 µM (active)
GI50 [22]: 0.000566 µM (active)
GI50 [23]: 0.000593 µM (active)
GI50 [24]: 0.387 µM (active)
GI50 [25]: 0.000453 µM
GI50 [26]: 0.00466 µM (active)
GI50 [27]: 0.000521 µM (active)
GI50 [28]: > 100 µM (inactive)
GI50 [29]: 0.00222 µM (active)
GI50 [30]: 1.11 µM (active)
GI50 [31]: 2.09 µM (inactive)
GI50 [32]: 1.55 µM (inactive)
GI50 [33]: 0.0615 µM (active)
GI50 [34]: 0.000419 µM (active)
GI50 [35]: 0.000324 µM (active)
GI50 [36]: 0.0168 µM (active)
GI50 [37]: 0.00248 µM (active)
GI50 [38]: 0.00151 µM (active)
GI50 [39]: 0.00091 µM (active)
GI50 [40]: 0.001 µM (active)
GI50 [41]: 0.00151 µM (active)
GI50 [42]: 0.001 µM (active)
GI50 [43]: 0.001 µM (active)
GI50 [44]: 0.000356 µM (active)
GI50 [45]: 0.000582 µM (active)
GI50 [46]: 0.000834 µM (active)
GI50 [47]: 0.00358 µM (active)
GI50 [48]: 0.00671 µM (active)
GI50 [49]: 2 µM (inactive)
GI50 [50]: 0.199 µM (active)
GI50 [51]: 0.1 µM (active)
GI50 [52]: 0.000452 µM (active)
GI50 [53]: 0.00057 µM (active)
GI50 [54]: 1.22 µM (inactive)
GI50 [55]: 0.000899 µM (active)
GI50 [56]: 0.000393 µM (active)
GI50 [57]: 0.382 µM (active)
GI50 [58]: 0.001 µM (active)

c1ccc2nc3c(nc2c1)sc1nc2ccccc2n13
GI50 [1]: > 100 µM (inactive)
GI50 [2]: > 100 µM (inactive)
GI50 [3]: > 100 µM (inactive)
GI50 [4]: > 100 µM (inactive)
GI50 [5]: > 100 µM (inactive)
GI50 [6]: > 100 µM (inactive)
GI50 [7]: 0.933 µM (active)
GI50 [8]: 93.8 µM (inactive)
GI50 [10]: > 100 µM (inactive)
GI50 [11]: > 100 µM (inactive)
GI50 [12]: > 100 µM (inactive)
GI50 [13]: > 100 µM (inactive)
GI50 [14]: > 100 µM (inactive)
GI50 [16]: > 100 µM (inactive)
GI50 [17]: 46.1 µM (inactive)
GI50 [18]: > 100 µM (inactive)
GI50 [19]: > 100 µM (inactive)
GI50 [20]: > 100 µM (inactive)
GI50 [21]: > 100 µM (inactive)
GI50 [22]: > 100 µM (inactive)
GI50 [23]: 45 µM (inactive)
GI50 [25]: > 100 µM
GI50 [26]: > 100 µM (inactive)
GI50 [27]: > 100 µM (inactive)
GI50 [28]: > 100 µM (inactive)
GI50 [29]: > 100 µM (inactive)
GI50 [30]: > 100 µM (inactive)
GI50 [31]: 57 µM (inactive)
GI50 [33]: 8 µM (inactive)
GI50 [34]: > 100 µM (inactive)
GI50 [35]: > 100 µM (inactive)
GI50 [36]: > 100 µM (inactive)
GI50 [37]: > 100 µM (inactive)
GI50 [38]: > 100 µM (inactive)
GI50 [39]: > 100 µM (inactive)
GI50 [40]: > 100 µM (inactive)
GI50 [59]: 26.1 µM (inactive)
GI50 [42]: > 100 µM (inactive)
GI50 [43]: > 100 µM (inactive)
GI50 [44]: 56.1 µM (inactive)
GI50 [45]: > 100 µM (inactive)
GI50 [46]: > 100 µM (inactive)
GI50 [47]: > 100 µM (inactive)
GI50 [48]: > 100 µM (inactive)
GI50 [49]: > 100 µM (inactive)
GI50 [50]: > 100 µM (inactive)
GI50 [51]: > 100 µM (inactive)
GI50 [52]: > 100 µM (inactive)
GI50 [53]: > 100 µM (inactive)
GI50 [55]: > 100 µM (inactive)
GI50 [56]: 92 µM (inactive)
GI50 [57]: 28.4 µM (inactive)
GI50 [58]: > 100 µM (inactive)

O=C1NC(=O)C(CCC(=O)c2cccc3ccccc23)C(=O)N1
GI50 [2]: > 100 µM (inactive)
GI50 [4]: > 100 µM (inactive)
GI50 [5]: > 100 µM (inactive)
GI50 [6]: > 100 µM (inactive)
GI50 [7]: > 100 µM (inactive)
GI50 [8]: > 100 µM (inactive)
GI50 [9]: > 100 µM (inactive)
GI50 [11]: > 100 µM (inactive)
GI50 [12]: > 100 µM (inactive)
GI50 [13]: 77.8 µM (inactive)
GI50 [14]: > 100 µM (inactive)
GI50 [15]: > 100 µM (inactive)
GI50 [16]: > 100 µM (inactive)
GI50 [17]: > 100 µM (inactive)
GI50 [18]: > 100 µM (inactive)
GI50 [19]: > 100 µM (inactive)
GI50 [20]: > 100 µM (inactive)
GI50 [21]: > 100 µM (inactive)
GI50 [22]: > 100 µM (inactive)
GI50 [23]: 60.1 µM (inactive)
GI50 [25]: > 100 µM
GI50 [26]: > 100 µM (inactive)
GI50 [27]: > 100 µM (inactive)
GI50 [28]: > 100 µM (inactive)
GI50 [29]: 26.4 µM (inactive)
GI50 [30]: > 100 µM (inactive)
GI50 [31]: > 100 µM (inactive)
GI50 [32]: > 100 µM (inactive)
GI50 [33]: > 100 µM (inactive)
GI50 [34]: > 100 µM (inactive)
GI50 [35]: > 100 µM (inactive)
GI50 [36]: > 100 µM (inactive)
GI50 [38]: > 100 µM (inactive)
GI50 [39]: > 100 µM (inactive)
GI50 [40]: > 100 µM (inactive)
GI50 [59]: > 100 µM (inactive)
GI50 [42]: > 100 µM (inactive)
GI50 [43]: > 100 µM (inactive)
GI50 [44]: > 100 µM (inactive)
GI50 [45]: > 100 µM (inactive)
GI50 [46]: 48.8 µM (inactive)
GI50 [47]: > 100 µM (inactive)
GI50 [48]: > 100 µM (inactive)
GI50 [49]: > 100 µM (inactive)
GI50 [50]: > 100 µM (inactive)
GI50 [51]: > 100 µM (inactive)
GI50 [52]: 85.3 µM (inactive)
GI50 [53]: > 10 µM (inactive)
GI50 [54]: > 100 µM (inactive)
GI50 [55]: > 100 µM (inactive)
GI50 [56]: > 100 µM (inactive)
GI50 [57]: > 100 µM (inactive)
GI50 [58]: > 100 µM (inactive)
